Where “and” joins values, the source holds several entries; their conditions need not be identical. Identical values can stand only once.
How the values were obtained:
Format in all cases: biochemical
MtbCoaBC [1] = molecular target: T1, MtbCoaBC (Mycobacterium tuberculosis, UniProt P9WNZ1); assay: High-throughput end-point pyrophosphate quantification assay (Biomol Green)
MtbCoaBC [2] = molecular target: T1, MtbCoaBC; assay: CMP quantification assay (UPLC), second half of CoaB reaction, variable L-cysteine; settings: for CMP formation rate, uM CMP/uM protein.s-1: MtbCoaBC 32nM, replicates R1-R3
MtbCoaBC [3] = molecular target: T1, MtbCoaBC; assay: Competition assays, first half of CoaB reaction (EnzChek, variable CTP or PPA); settings: for mode of inhibition: in words
MtbCoaBC [4] = molecular target: T1, MtbCoaBC; assay: biochemical; settings: for Activity %: relative to average CT; for Activity % / Inhibition % / Activity: replicates R1-R3; for Activity: slope of absorbance at 360 nm vs time (s); for inhibition, replicates / reaction rate (slope of absorbance at 360 nm over time), replicates: IC50 MtbCoaBC AcCoA
[5] = AcCoA concentration 512 (log 2.70927)
[6] = AcCoA concentration 1024 (log 3.0103)

T1 sequence (P9WNZ1 whole entry): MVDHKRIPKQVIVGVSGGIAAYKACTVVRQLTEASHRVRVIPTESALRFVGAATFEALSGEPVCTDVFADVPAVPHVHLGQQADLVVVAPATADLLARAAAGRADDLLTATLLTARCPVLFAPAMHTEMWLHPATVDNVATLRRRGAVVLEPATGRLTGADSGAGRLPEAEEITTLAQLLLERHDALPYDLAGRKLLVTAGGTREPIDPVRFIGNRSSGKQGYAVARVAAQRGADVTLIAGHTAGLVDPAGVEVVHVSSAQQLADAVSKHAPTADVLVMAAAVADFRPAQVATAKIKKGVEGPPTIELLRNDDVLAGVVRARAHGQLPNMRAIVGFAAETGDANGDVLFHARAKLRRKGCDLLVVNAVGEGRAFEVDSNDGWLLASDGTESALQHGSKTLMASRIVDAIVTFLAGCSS

SMILES: O=c1cc(-c2ccccc2)oc2cc(O)c(O)c(O)c12 [2a]
- IC50 (MtbCoaBC [1]): 3.1 µM

SMILES: O=C(c1ccccc1)c1ccc(O)c(O)c1O [compound 1a]
- IC50 (MtbCoaBC [1]; MtbCoaB activity, end-point, 2 µM CTP, 40 µM L-cysteine, 30 µM PPA, read-out: IC50 biomol green assay): 9 µM

SMILES: CC(=O)SCCNC(=O)CCNC(=O)[C@H](O)C(C)(C)COP(=O)(O)OP(=O)(O)OC[C@H]1O[C@@H](n2cnc3c(N)ncnc32)[C@H](O)[C@@H]1OP(=O)(O)O [AcCoA, acetyl-CoA]
- CMP formation rate, uM CMP/uM protein.s-1 (MtbCoaBC [2]; 32uM AcCoA, 31.25 uM cysteine): 0.1004 uM CMP/uM protein.s-1 and 0.1195 uM CMP/uM protein.s-1 and 0.1103 uM CMP/uM protein.s-1
- CMP formation rate, uM CMP/uM protein.s-1 (MtbCoaBC [2]; 32uM AcCoA, 62.5 uM cysteine): 0.1434 uM CMP/uM protein.s-1 and 0.1547 uM CMP/uM protein.s-1 and 0.1394 uM CMP/uM protein.s-1
- CMP formation rate, uM CMP/uM protein.s-1 (MtbCoaBC [2]; 32uM AcCoA, 250 uM cysteine): 0.2114 uM CMP/uM protein.s-1 and 0.2235 uM CMP/uM protein.s-1 and 0.2345 uM CMP/uM protein.s-1
- CMP formation rate, uM CMP/uM protein.s-1 (MtbCoaBC [2]; 32uM AcCoA, 500 uM cysteine): 0.2276 uM CMP/uM protein.s-1 and 0.2314 uM CMP/uM protein.s-1 and 0.2458 uM CMP/uM protein.s-1
- CMP formation rate, uM CMP/uM protein.s-1 (MtbCoaBC [2]; 64uM AcCoA, 31.25 uM cysteine): 0.08802 uM CMP/uM protein.s-1 and 0.06801 uM CMP/uM protein.s-1 and 0.07425 uM CMP/uM protein.s-1
- CMP formation rate, uM CMP/uM protein.s-1 (MtbCoaBC [2]; 64uM AcCoA, 62.5 uM cysteine): 0.1006 uM CMP/uM protein.s-1 and 0.1253 uM CMP/uM protein.s-1 and 0.1155 uM CMP/uM protein.s-1
- CMP formation rate, uM CMP/uM protein.s-1 (MtbCoaBC [2]; 64uM AcCoA, 250 uM cysteine): 0.1479 uM CMP/uM protein.s-1 and 0.156 uM CMP/uM protein.s-1 and 0.1565 uM CMP/uM protein.s-1
- CMP formation rate, uM CMP/uM protein.s-1 (MtbCoaBC [2]; 64uM AcCoA, 500 uM cysteine): 0.1756 uM CMP/uM protein.s-1 and 0.1564 uM CMP/uM protein.s-1 and 0.1555 uM CMP/uM protein.s-1
- CMP formation rate, uM CMP/uM protein.s-1 (MtbCoaBC [2]; 128uM AcCoA, 31.25 uM cysteine): 0.04605 uM CMP/uM protein.s-1 and 0.05632 uM CMP/uM protein.s-1 and 0.0514 uM CMP/uM protein.s-1
- CMP formation rate, uM CMP/uM protein.s-1 (MtbCoaBC [2]; 128uM AcCoA, 62.5 uM cysteine): 0.06616 uM CMP/uM protein.s-1 and 0.09648 uM CMP/uM protein.s-1 and 0.09325 uM CMP/uM protein.s-1
- CMP formation rate, uM CMP/uM protein.s-1 (MtbCoaBC [2]; 128uM AcCoA, 250 uM cysteine): 0.09625 uM CMP/uM protein.s-1 and 0.1011 uM CMP/uM protein.s-1 and 0.1018 uM CMP/uM protein.s-1
- CMP formation rate, uM CMP/uM protein.s-1 (MtbCoaBC [2]; 128uM AcCoA, 500 uM cysteine): 0.1011 uM CMP/uM protein.s-1 and 0.1154 uM CMP/uM protein.s-1 and 0.1123 uM CMP/uM protein.s-1
- mode of inhibition (MtbCoaBC [2]; relative to L-cysteine, in words): non-competitive inhibition
- Ki (MtbCoaBC [2]; variable substrate L-cysteine): 62.1 ± 2 µM
- mode of inhibition (MtbCoaBC [3]; relative to CTP): competitive
- mode of inhibition (MtbCoaBC [3]; relative to PPA): competitive
- Inibition type (MtbCoaBC [3]; variable substrate CTP): C (C competitive inhibition)
- Ki (MtbCoaBC [3]; variable substrate CTP): 22.5 ± 1.7 µM
- Inibition type (MtbCoaBC [3]; variable substrate PPA): C (C competitive inhibition)
- Ki (MtbCoaBC [3]; variable substrate PPA): 22.4 ± 1.4 µM
- Activity % (MtbCoaBC [4]; 8 uM AcCoA): 102.2% and 99.12% and 97.26%
- Inhibition % (MtbCoaBC [4]; 8 uM AcCoA): 0.88% and 2.74% and -2.21%
- Activity (MtbCoaBC [4]; 8 uM AcCoA): 0.0001687 and 0.0001636 and 0.0001606
- Activity % (MtbCoaBC [4]; 16 uM AcCoA): 97.8% and 95.95%
- Inhibition % (MtbCoaBC [4]; 16 uM AcCoA): 2.20% and 4.05%
- Activity (MtbCoaBC [4]; 16 uM AcCoA): 0.0001621 and 0.0001615 and 0.0001584
- Activity % (MtbCoaBC [4]; 32 uM AcCoA): 83.56% and 84.79% and 80.02%
- Inhibition % (MtbCoaBC [4]; 32 uM AcCoA): 15.21% and 19.98% and 16.44%
- Activity (MtbCoaBC [4]; 32 uM AcCoA): 0.0001379 and 0.00014 and 0.0001321
- Activity % (MtbCoaBC [4]; 64 uM AcCoA): 72.03% and 75.67% and 69.98%
- Inhibition % (MtbCoaBC [4]; 64 uM AcCoA): 24.33% and 30.02% and 27.97%
- Activity (MtbCoaBC [4]; 64 uM AcCoA): 0.0001189 and 0.0001249 and 0.0001155
- Activity % (MtbCoaBC [4]; 128 uM AcCoA): 46.95% and 48.75% and 44.16%
- Inhibition % (MtbCoaBC [4]; 128 uM AcCoA): 51.25% and 55.84% and 53.05%
- Activity (MtbCoaBC [4]; 128 uM AcCoA): 0.000077520 and 0.000080489 and 0.000072900
- Activity % (MtbCoaBC [4]; 256 uM AcCoA): 25.68% and 25.48% and 26.76%
- Inhibition % (MtbCoaBC [4]; 256 uM AcCoA): 74.52% and 73.24% and 74.32%
- Activity (MtbCoaBC [4]; 256 uM AcCoA): 0.000042403 and 0.000042072 and 0.000044186
- IC50 (MtbCoaBC [4]; CoaB activity, […] CTP, […] PPA, 500 µM L-cysteine, average of three independent experiments ± SD, read-out: IC50 EnzChek MtbCoaBC): 121 ± 9 µM
- inhibition, replicates (MtbCoaBC [4]; [5]): 81.65 and 87.30 and 84.02
- reaction rate (slope of absorbance at 360 nm over time), replicates (MtbCoaBC [4]; [5]): 0.000026380 and 0.000030299 and 0.000020964
- inhibition, replicates (MtbCoaBC [4]; [6]): 99.03 and 98.19 and 97.42
- reaction rate (slope of absorbance at 360 nm over time), replicates (MtbCoaBC [4]; [6]): 0.000004262 and 0.000001602 and 0.000002982
